{"source": "PubChem BioAssay AID214", "about": "(DTP/NCI, 2004)", "test_system": "B6C3F1 mice, colon carcinoma 38 s.c., T/C", "assay": "NCI In Vivo Anticancer Drug Screen. Data for tumor model Colon Carcinoma 38 (subcutaneous) in B6C3F1 mice", "conditions": "vehicle: saline", "procedure": "The antitumor activity of compounds was measured in mice bearing transplantable tumors. Survival or tumor size were measured and the results are expressed as the measurement made in the treated group (T) divided by the measurement made in the vehicle treated control group (C). The tumor model used in this assay is Colon Carcinoma 38 (subcutaneous) in B6C3F1 mice", "note": "Where “and” joins values, the source holds several entries; their conditions need not be identical. Equal values may be shown once. Records with an inconclusive call do not appear."}
{"compound": "CCN(CC)CCOC(=O)Cc1cccc2c(=O)cc(-c3ccccc3)oc12", "values": [{"measurement": "T/C", "setting": "endpoint: median survival time, dose: 3.12 mg/kg/injection, schedule: Q01DX001 (iv), higher = longer survival", "result": "101 % of control"}, {"measurement": "T/C", "setting": "endpoint: median survival time, dose: 3.12 mg/kg/injection, schedule: Q07DX002 (iv), higher = longer survival", "result": "102 % of control"}, {"measurement": "T/C", "setting": "endpoint: median survival time, dose: 6.25 mg/kg/injection, schedule: Q01DX001 (iv), higher = longer survival", "result": "102 % of control"}, {"measurement": "T/C", "setting": "endpoint: median survival time, dose: 6.25 mg/kg/injection, schedule: Q07DX002 (iv), higher = longer survival", "result": "106 % of control"}, {"measurement": "T/C", "setting": "endpoint: median survival time, dose: 15.82 mg/kg/injection, schedule: Q07DX002 (iv), higher = longer survival", "result": "92 % of control"}, {"measurement": "T/C", "setting": "endpoint: median survival time, dose: 21.09 mg/kg/injection, schedule: Q01DX001 (iv), higher = longer survival", "result": "101 % of control"}, {"measurement": "T/C", "setting": "endpoint: median survival time, dose: 21.09 mg/kg/injection, schedule: Q07DX002 (iv), higher = longer survival", "result": "96 % of control"}, {"measurement": "T/C", "setting": "endpoint: median survival time, dose: 25.0 mg/kg/injection, schedule: Q07DX002 (iv), higher = longer survival", "result": "87 % of control"}, {"measurement": "T/C", "setting": "endpoint: median survival time, dose: 28.13 mg/kg/injection, schedule: Q01DX001 (iv), higher = longer survival", "result": "100 % of control"}, {"measurement": "T/C", "setting": "endpoint: median survival time, dose: 28.13 mg/kg/injection, schedule: Q07DX002 (iv), higher = longer survival", "result": "121 % of control"}, {"measurement": "T/C", "setting": "endpoint: median survival time, dose: 37.5 mg/kg/injection, schedule: Q01DX001 (iv), higher = longer survival", "result": "92 % of control"}, {"measurement": "T/C", "setting": "endpoint: median survival time, dose: 37.5 mg/kg/injection, schedule: Q07DX002 (iv), higher = longer survival", "result": "110 % of control"}, {"measurement": "T/C", "setting": "endpoint: median survival time, dose: 50.0 mg/kg/injection, schedule: Q01DX001 (iv), higher = longer survival", "result": "96 % of control"}, {"measurement": "T/C", "setting": "endpoint: median survival time, dose: 112.5 mg/kg/injection, schedule: Q01DX001 (ip), higher = longer survival", "result": "89 % of control"}, {"measurement": "T/C", "setting": "endpoint: median survival time, dose: 112.5 mg/kg/injection, schedule: Q07DX002 (ip), higher = longer survival", "result": "90 % of control and 120 % of control"}, {"measurement": "T/C", "setting": "endpoint: median survival time, dose: 150.0 mg/kg/injection, schedule: Q01DX001 (ip), higher = longer survival", "result": "96 % of control and 99 % of control"}, {"measurement": "T/C", "setting": "endpoint: median survival time, dose: 150.0 mg/kg/injection, schedule: Q07DX002 (ip), higher = longer survival", "result": "167 % of control and 218 % of control"}, {"measurement": "T/C", "setting": "endpoint: median survival time, dose: 200.0 mg/kg/injection, schedule: Q07DX002 (ip), higher = longer survival", "result": "220 % of control and 238 % of control"}, {"measurement": "T/C", "setting": "endpoint: median survival time, dose: 266.7 mg/kg/injection, schedule: Q01DX001 (ip), higher = longer survival", "result": "171 % of control and 176 % of control"}, {"measurement": "T/C", "setting": "endpoint: median survival time, dose: 266.7 mg/kg/injection, schedule: Q07DX002 (ip), higher = longer survival", "result": "220 % of control and 238 % of control"}, {"measurement": "T/C", "setting": "endpoint: median survival time, dose: 355.6 mg/kg/injection, schedule: Q01DX001 (ip), higher = longer survival", "result": "220 % of control and 232 % of control"}, {"measurement": "T/C", "setting": "endpoint: median tumor weight (est.), dose: 21.09 mg/kg/injection, schedule: Q07DX002 (iv), higher = larger tumour", "result": "86 % of control"}, {"measurement": "T/C", "setting": "endpoint: median tumor weight (est.), dose: 26.7 mg/kg/injection, schedule: Q03HX024 (ip), higher = larger tumour", "result": "115 % of control"}, {"measurement": "T/C", "setting": "endpoint: median tumor weight (est.), dose: 28.13 mg/kg/injection, schedule: Q01DX001 (iv), higher = larger tumour", "result": "77 % of control and 89 % of control"}, {"measurement": "T/C", "setting": "endpoint: median tumor weight (est.), dose: 35.6 mg/kg/injection, schedule: Q03HX024 (ip), higher = larger tumour", "result": "155 % of control"}, {"measurement": "T/C", "setting": "endpoint: median tumor weight (est.), dose: 35.6 mg/kg/injection, schedule: Q06HX016 (ip), higher = larger tumour", "result": "86 % of control"}, {"measurement": "T/C", "setting": "endpoint: median tumor weight (est.), dose: 37.5 mg/kg/injection, schedule: Q01DX001 (iv), higher = larger tumour", "result": "107 % of control"}, {"measurement": "T/C", "setting": "endpoint: median tumor weight (est.), dose: 47.5 mg/kg/injection, schedule: Q01DX008 (ip), higher = larger tumour", "result": "79 % of control"}, {"measurement": "T/C", "setting": "endpoint: median tumor weight (est.), dose: 47.5 mg/kg/injection, schedule: Q03HX006 (ip), higher = larger tumour", "result": "117 % of control"}, {"measurement": "T/C", "setting": "endpoint: median tumor weight (est.), dose: 47.5 mg/kg/injection, schedule: Q03HX024 (ip), higher = larger tumour", "result": "83 % of control"}, {"measurement": "T/C", "setting": "endpoint: median tumor weight (est.), dose: 47.5 mg/kg/injection, schedule: Q06HX016 (ip), higher = larger tumour", "result": "75 % of control"}, {"measurement": "T/C", "setting": "endpoint: median tumor weight (est.), dose: 50.0 mg/kg/injection, schedule: Q01DX001 (iv), higher = larger tumour", "result": "50 % of control"}, {"measurement": "T/C", "setting": "endpoint: median tumor weight (est.), dose: 63.3 mg/kg/injection, schedule: Q03HX006 (ip), higher = larger tumour", "result": "63 % of control"}, {"measurement": "T/C", "setting": "endpoint: median tumor weight (est.), dose: 63.3 mg/kg/injection, schedule: Q06HX016 (ip), higher = larger tumour", "result": "93 % of control"}, {"measurement": "T/C", "setting": "endpoint: median tumor weight (est.), dose: 84.4 mg/kg/injection, schedule: Q01DX008 (ip), higher = larger tumour", "result": "111 % of control"}, {"measurement": "T/C", "setting": "endpoint: median tumor weight (est.), dose: 84.4 mg/kg/injection, schedule: Q03HX006 (ip), higher = larger tumour", "result": "63 % of control"}, {"measurement": "T/C", "setting": "endpoint: median tumor weight (est.), dose: 84.4 mg/kg/injection, schedule: Q06HX004 (ip), higher = larger tumour", "result": "75 % of control"}, {"measurement": "T/C", "setting": "endpoint: median tumor weight (est.), dose: 84.4 mg/kg/injection, schedule: Q06HX016 (ip), higher = larger tumour", "result": "63 % of control"}, {"measurement": "T/C", "setting": "endpoint: median tumor weight (est.), dose: 84.4 mg/kg/injection, schedule: Q07DX002 (ip), higher = larger tumour", "result": "60 % of control"}, {"measurement": "T/C", "setting": "endpoint: median tumor weight (est.), dose: 112.5 mg/kg/injection, schedule: Q01DX008 (ip), higher = larger tumour", "result": "73 % of control"}, {"measurement": "T/C", "setting": "endpoint: median tumor weight (est.), dose: 112.5 mg/kg/injection, schedule: Q03HX006 (ip), higher = larger tumour", "result": "18 % of control"}, {"measurement": "T/C", "setting": "endpoint: median tumor weight (est.), dose: 112.5 mg/kg/injection, schedule: Q06HX004 (ip), higher = larger tumour", "result": "60 % of control"}, {"measurement": "T/C", "setting": "endpoint: median tumor weight (est.), dose: 150.0 mg/kg/injection, schedule: Q06HX004 (ip), higher = larger tumour", "result": "54 % of control"}, {"measurement": "T/C", "setting": "endpoint: median tumor weight (est.), dose: 200.0 mg/kg/injection, schedule: Q01DX001 (ip), higher = larger tumour", "result": "20 % of control and 22 % of control"}, {"measurement": "T/C", "setting": "endpoint: median tumor weight (est.), dose: 200.0 mg/kg/injection, schedule: Q06HX004 (ip), higher = larger tumour", "result": "9 % of control"}, {"measurement": "T/C", "setting": "endpoint: median tumor weight (est.), dose: 200.0 mg/kg/injection, schedule: Q07DX002 (ip), higher = larger tumour", "result": "4 % of control and 9 % of control"}, {"measurement": "T/C", "setting": "endpoint: median tumor weight (est.), dose: 266.7 mg/kg/injection, schedule: Q01DX001 (ip), higher = larger tumour", "result": "7 % of control and 13 % of control"}]}
